Laboratory results as given in patent US11472846B2, “Compositions and methods for treating diseases by inhibiting exosome release” (priority 2016, dated 2022).

Tests used:
Format in all cases: cell-based, human
[1] = test system: MCF-7 breast cancer cells; experiment: Exosome release by acetylcholinesterase (AchE) assay, MCF-7; conditions: MCF-7 cells, five-day treatment
Description: (§1) 1-6. Exosome isolation and purification. Exosomes were isolated from breast cancer cells by differential centrifugation as previously described (Ali SA. et al., 2010). Untreated tumor cells were used as a control. Briefly, the above treated and untreated cell culture supernatants were centrifuged at 400×g for 10 minutes. The supernatants were transferred to a clear tube and centrifuged at 10,000×g for 30 minutes. The supernatants from the second spin were ultracentrifuged at 200,000×g for 2 hours to pellet exosomes. Finally, the exosome pellets were re-suspended with PBS and stored at 4° C. until used for analysis.
(§2) 1-7. Exosome characterization by acetylcholinesterase (AchE) assay. Purified exosomes were quantitated by measurement of AchE as described (Ellman et al., 1961). Briefly, a 100 mM dithibionitrobenzoic (DTNB) solution was prepared for use as a stock color indicator, and a 28.9 mg/mL acetylthiocholine iodide in PBS solution was prepared as a stock substrate. The stock substrate stock can be stored at −20° C. up to one month, while the color indicator can be stored at 4° C. for two weeks. A working solution was prepared by mixing 10 mL of PBS with 200 μL of Substrate and 500 μl of DTNB. 50 μL of each exosome sample was transferred to 96 well microtitre plates, and a standard curve was prepared using AchE from 0.98 mU/mL to 2000 mU/mL. After 50 μL of standards were added into separate wells, 200 μL of the working solution was added to all wells. After 20 min incubation, AchE activity was measured at 450 nm using a SpectroMax M5 fluorimeter.
(§3) 7-5. Exosome isolation and purification. Exosomes were isolated from breast cancer cells and leukemia cells using the ExoQuick-TC Exosome Precipitation Kit (System Biosciencences [SBI], Mountain View Calif.) or the miRCURY Exosome Isolation Kit (EXIQON, Woburn, Mass.) according to the manufacturer's instructions. Untreated tumor cells were used as a control. Briefly, treated and untreated cell culture supernatants (10 mL) were centrifuged at 3000×g for 15 minutes. The resulting supernatants were transferred to a clear tube, 2 mL of ExoQuick-TC buffer was added, mixed and incubated overnight at 4° C. Following the incubation, the sample contents were centrifuged at 1500×g for 30 minutes, the supernatants were aspirated off, the pellets were centrifuged at 1500×g for 5 minutes and any further traces of supernatant were removed (SBI). Alternatively, treated and untreated cell culture supernatants were centrifuged at 10,000×g for 5 minutes to remove cell debris, supernatants (10 ml) were transferred into new tubes, and 4 mL of precipitation buffer (EXIQON) was added, and the contents were mixed and incubated at 4° C. overnight. Following the incubation, the sample contents were centrifuged at 10,000×g for 30 minutes (EXIQON). Exosome-containing pellets were re-suspended in PBS and stored at 4° C. or −80° C.
(§4) 7-6. Exosome characterization by acetylcholinesterase (AchE) assay. Purified exosomes were quantitated by measurement of AchE as previously described (Huang et al., Oncotarget, 2017. 8(7): pp. 11302-11315). Briefly, 100 mM dithibionitrobenzoic (DTNB) was prepared as a stock color indicator, and prepared a stock substrate containing 28.9 mg/mL of acetylthiocholine iodide in PBS. Substrate stock can be stored at −20° C. up to one month; the stock color indicator can be stored at 4° C. for two weeks. A working solution was prepared by mixing 10 mL of PBS with 200 μL of substrate and 500 μl of DTNB. 50 μL of each exosome sample was transferred to a 96 well microtitre plate, and a standard curve for AchE concentrations was prepared using AchE from 0.98 mU/mL to 2000 mU/mL. After 50 μL of standards were added into separate wells, 200 μL of the working solution was added to each well. After a 20 min incubation, AchE activity was measured at 450 nm using a SpectroMax M5 fluorometer (FIG. 11).

[2] = test system: MDA-MB-231 breast cancer cells; experiment: Exosome release by acetylcholinesterase (AchE) assay, MDA-MB-231; conditions: MDA-MB-231 cells, five-day treatment
Description: as §1, §2, §3, §4

[3] = test system: exosomes from MCF-7 cells; experiment: Western blot of exosomal proteins (Alix, vimentin, mortalin), MCF-7; conditions: 48 hr treatment, vs negative controls
Description: (§5) 7-7. Protein analysis by Western blotting. Exosomes were isolated from cell culture supernatants as described above. Protein concentrations were determined by measuring absorbance at 280 nm (Nanodrop 2000). Cultured cells were treated with PEG-SMR-Clu, SMR-CPP peptides, MKT-077, Omeprazole or DMA at 37° C. for 48 hr. To evaluate mortalin, vimentin and exosome expression, Western blot analysis was performed using anti-mortalin (Grp-75), anti-Vimentin and anti-Alix antibodies, respectively (FIG. 12).
(§6) Exosomes and cell lysates were prepared by incubating 5-10 min at 95° C. in sample buffer. The lysates were subjected to SDS-PAGE under reducing conditions (150 mM DTT) in 4-20% Criterion™ TGX™ precast gels (BioRad, Hercules, Calif.) and then transferred onto a nitrocellulose membrane (Bio-Rad, Hercules, Calif.). Nitrocellulose membranes were blocked with 5% skim milk (MedSupply, Atlanta, Ga.) in TBS containing 0.05% Tween 20 (TBST) for 1 h at room temperature. The membranes were treated with anti-mortalin (Grp-75) mAb or anti-α-tubulin mAb for cell lysates (FIG. 15, Panels A and B) or with anti-Alix and anti-vimentin or anti-mortalin for exosomes (FIG. 12), followed by peroxidase-conjugated goat anti-mouse IgG. Bands were developed with an ECL chemiluminescent substrate (Santa Cruz Biotechnology, Santa Cruz, Calif.) and exposed to an ImageQuant LAS 4000 imaging system (GE Healthcare, Piscataway, N.J. 08854).

MDA-MB-231 exosomes = experiment: Western blot of exosomal proteins (Alix, vimentin, mortalin), MDA-MB-231; conditions: MDA-MB-231 cells, 48 hr treatment
Description: as §5, §6

K562 exosomes = experiment: Western blot of exosomal proteins (Alix, vimentin, mortalin), K562; conditions: K562 cells, 48 hr treatment
Description: as §5, §6

MDA-MB-231 cells = experiment: TUNEL apoptosis assay, MDA-MB-231; conditions: 48 hours, MKT-077 925 nM/mL, DMA 300 μM/mL, Omeprazole 200 μM/mL, paclitaxel 1.6 uM/mL, cisplatin 2 mg/mL
Description: (§7) 7-8. Apoptosis assay by flow cytometry. For assessment of apoptosis, MCF-7 and MDA-MB-231 breast cancer cells and were seeded into 6-well plates at 4×10^5 cells per well and treated for 48 hours with 925 nM/mL of MKT-077 on MDA-MB-231 cells, 500 nM/mL of MKT-077 on MCF-7 cells, 337.5 nM/mL of MKT-077 on K562 cells, 300 μM/mL of DMA, 200 μM/mL of Omeprazole, 1.6 uM/mL of paclitaxel, 2 mg/mL of cisplatin, or combined treatment with either paclitaxel or cisplatin in combination with each of the three mortalin inhibitors. Apoptosis was determined using the TUNEL detection kit (Nexcelom, MA) and GUAVA easyCyte HT (EMD Millipore Corporation, Temecula, Calif.) system for fluorometric detection. (FIG. 13).

MCF-7 cells = experiment: TUNEL apoptosis assay, MCF-7; conditions: 48 hours, MKT-077 500 nM/mL, DMA 300 μM/mL, Omeprazole 200 μM/mL, paclitaxel 1.6 uM/mL, cisplatin 2 mg/mL
Description: as §7

K562 cells = experiment: TUNEL apoptosis assay, K562; conditions: 48 hours, MKT-077 337.5 nM/mL, DMA 300 μM/mL, Omeprazole 200 μM/mL, paclitaxel 1.6 uM/mL, cisplatin 2 mg/mL
Description: as §7

[4] = test system: MCF-7 breast cancer cells; experiment: InnoCyte cell migration assay, MCF-7; conditions: MCF-7 cells, 1120 nM SMR peptide or 3 μM Latrunculin A, 24 hours
Description: (§8) 7-12. Cell migration assay. Cell migration assays were performed using the InnoCyte Cell Migration Assay (EMD Millipore Corporation, Temecula, Calif.) according to the manufacturer's instructions. Briefly, cell migration was monitored in the presence and absence of SMRwt peptides or latrunculin A (positive control inhibitor), which were added to the lower chamber of a 96-well plate. MCF-7 and MDA-MB-231 breast cancer cells and non-tumorigenic MCF-10A breast cells were harvested by 0.25% Trypsin-EDTA (Life Technologies) release and resuspended at 250,000500,000 cells/ml in serum-free RPMI 1640 media. A total of 25,000-50,000 cells was added to the upper chamber and allowed to migrate through an 8-μm pore-size membrane for 24 hours at 37° C. in a 5% CO2 atmosphere. Cells that migrated through the membrane were detached and labeled with Calcein-AM fluorescent dye. Fluorescence was measured using a Fluorescence Plate Reader (Molecular Devices, Sunnyvale, Calif.) with an excitation wavelength of 485 nm and an emission wavelength of 515 nm. The experiment was repeated in triplicate, and each conditioned experiment was performed in quadruplicate.

[5] = test system: MDA-MB-231 breast cancer cells; experiment: InnoCyte cell migration assay, MDA-MB-231; conditions: MDA-MB-231 cells, 280 nM SMR peptide or 3 μM Latrunculin A, 24 hours
Description: as §8

Structure (SMILES)	average AChE concentration days 1 to 5 [1]	average AChE concentration day 1 to 5 [2]	Alix expression in exosomes [3]	Mortalin expression in exosomes [3]	Vimentin expression in exosomes [3]	Mortalin expression in exosomes (MDA-MB-231 exosomes)	Vimentin expression in exosomes (MDA-MB-231 exosomes)	Alix expression in exosomes (K562 exosomes)	Mortalin expression in exosomes (K562 exosomes)	Vimentin expression in exosomes (K562 exosomes)	apoptosis (TUNEL) (MDA-MB-231 cells)	apoptosis (TUNEL) (MCF-7 cells)	apoptosis (TUNEL) (K562 cells)	reduced migration by [4]	reduced migration by [5]
COc1ccc2[nH]c([S+]([O-])Cc3ncc(C)c(OC)c3C)nc2c1 (stereo not drawn) [Omeprazole, 5-Methoxy-2-[[(4-methoxy-3,5-dimethyl-2-pyridinyl)methyl]sulfinyl]-1H-benzimidazole]	26 mU/mL	25 mU/mL	not accompanied by significant reductions	no significant changes	significantly decreased	No significant change	no significant change	significantly decreased	significantly decreased	significantly	3.0%	1.1%	6.1%	–	–
C/C1=C/C(=O)O[C@@H]2C[C@@H](CC[C@H](C)/C=C\C=C\CC1)O[C@@](O)([C@@H]1CSC(=O)N1)C2 [latrunculin A, reference compound]	–	–	–	–	–	–	–	–	–	–	–	–	–	53.05%	50.39%
